# According to patent US10899738B2 (THE REGENTS OF THE UNIVERSITY OF MICHIGAN, priority 2016, dated 2021):
# Molecular target: menin protein (Homo sapiens (Human), UniProt O00255)
# Assay: biochemical
# Format: binding
# Conditions: FP competitive binding; menin protein 4 nM, FAM-MM2 probe 2 nM
# Summary of the method: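 Competitive fluorescence polarization assay using FAM-labelled MLL1 peptide probe FAM-MM2 (2 nM final) preincubated with menin (4 nM final) in PBS with 0.02% bovine γ-globulin, 4% DMSO and 0.01% Triton X-100. Compounds were added and incubated 30 min at room temperature. IC50 came from nonlinear regression of competition curves, with Ki also derived.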
# menin protein, sequence (O00255 whole entry): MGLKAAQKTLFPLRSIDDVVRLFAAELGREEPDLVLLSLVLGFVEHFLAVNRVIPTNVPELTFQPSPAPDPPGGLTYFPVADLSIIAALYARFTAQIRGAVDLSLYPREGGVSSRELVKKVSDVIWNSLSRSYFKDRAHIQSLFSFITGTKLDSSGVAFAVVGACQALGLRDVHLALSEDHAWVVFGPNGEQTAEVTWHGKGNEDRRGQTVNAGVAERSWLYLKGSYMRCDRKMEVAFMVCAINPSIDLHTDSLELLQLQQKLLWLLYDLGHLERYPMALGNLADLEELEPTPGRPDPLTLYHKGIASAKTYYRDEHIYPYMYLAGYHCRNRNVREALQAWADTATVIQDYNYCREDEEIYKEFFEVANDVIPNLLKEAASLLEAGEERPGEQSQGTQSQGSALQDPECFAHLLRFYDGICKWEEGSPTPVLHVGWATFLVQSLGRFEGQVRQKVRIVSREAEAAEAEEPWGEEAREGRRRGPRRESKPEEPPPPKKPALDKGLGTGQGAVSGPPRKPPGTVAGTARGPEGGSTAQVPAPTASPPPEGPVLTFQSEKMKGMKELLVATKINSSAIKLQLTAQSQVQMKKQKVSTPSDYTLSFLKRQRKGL
row,Menin Binding Affinity IC50 (μM),SMILES
1,No inhibition,"CC(=O)O[C@H]1CCC[C@@H]1C(C#N)(c1ccccc1)C1CCN(CC#Cc2ccc(C#N)cc2)CC1 (mixture of isomers) [compound 386, rac-(1S,2R)-2-(cyano(1-(3-(4-cyanophenyl)prop-2-yn-1-yl)piperidin-4-yl)(phenyl)methyl)cyclopentyl acetate]"

# Same assay, conditions: FP competitive binding; menin protein 4 nM, FAM-MM2 probe 2 nM; read-out: Menin Binding Affinity IC50
row,SMILES,IC50 [µM]
1,"c1ccc(CN2CCC(CC3(C4CCCC4)NCCc4ccccc43)CC2)cc1 (centres unmarked) [compound 106, 1-((1-benzylpiperidin-4-yl)methyl)-1-cyclopentyl-1,2,3,4-tetrahydroisoquinoline]",84.1
2,"CNC(=O)O[C@H]1CCC[C@@H]1C(Cn1ccnc1C)(c1cccc(F)c1)C1CCN(CC2CN(c3ccc(Cl)cc3)C2)CC1 (mixture of isomers) [compound 413, rac-(1S,2R)-2-(1-(1-((1-(4-chlorophenyl)azetidin-3-yl)methyl)piperidin-4-yl)-1-(3-fluorophenyl)-2-(2-methyl-1H-imidazol-1-yl)ethyl)cyclopentyl methylcarbamate]",0.006
3,"CCNC(=O)[C@H]1CCC[C@@H]1C(C#N)(c1ccccc1)C1CCN(CC2CN(c3ccc(S(=O)(=O)C4CC4)cc3)C2)CC1 (mixture of isomers) [compound 335, rac-(1S,2S)-2-(cyano(1-((1-(4-(cyclopropylsulfonyl)phenyl)azetidin-3-yl)methyl)piperidin-4-yl)(phenyl)methyl)-N-ethylcyclopentane-1-carboxamide]",5.6
4,"CNC(=O)O[C@@H]1CCC[C@H]1C(C#N)(c1ccccc1)C1CCN(CC2(C)CN(c3ccc(S(=O)(=O)c4cnn(C)c4)cc3)C2)CC1 (mixture of isomers) [compound 371, rac-(1R,2S)-2-(cyano(1-((3-methyl-1-(4-((1-methyl-1H-pyrazol-4-yl)sulfonyl)phenyl)azetidin-3-yl)methyl)piperidin-4-yl)(phenyl)methyl)cyclopentyl methylcarbamate]",2.1
5,"N#Cc1ccc(OCCCN2CCC(C(C#N)(c3ccccc3)C3CCCCC3)CC2)cc1 (centres unmarked) [compound 294, 4-(3-(4-(cyano(cyclohexyl)(phenyl)methyl)piperidin-1-yl)propoxy)benzonitrile]",11.1
6,"N#Cc1ccc(OCCCN2CCC(C3(C4CCCC4)NCCc4c(F)cccc43)CC2)cc1 (centres unmarked) [compound 29, 4-(3-(4-(1-cyclopentyl-5-fluoro-1,2,3,4-tetrahydroisoquinolin-1-yl)piperidin-1-yl)propoxy)benzonitrile]",0.091
7,"N#Cc1ccc(OCCCN2CCC(C3(C4CCCC4)NCCc4sccc43)CC2)cc1 (centres unmarked) [compound 32, 4-(3-(4-(4-cyclopentyl-4,5,6,7-tetrahydrothieno[3,2-c]pyridin-4-yl)piperidin-1-yl)propoxy)benzonitrile]",0.059
8,"COC(=O)N[C@@H]1CCC[C@H]1C(C#N)(c1ccccc1)C1CCN(CC2CN(c3ccc(S(=O)(=O)c4cnn(C)c4)cc3)C2)CC1 (mixture of isomers) [Cpd. No. 350, methyl (rac-(1R,2S)-2-(cyano(1-((1-(4-((1-methyl-1H-pyrazol-4-yl)sulfonyl)phenyl)azetidin-3-yl)methyl)piperidin-4-yl)(phenyl)methyl)cyclopentyl)carbamate]",1.2
9,"COC(=O)N[C@@H]1CCC[C@H]1C(C#N)(c1ccccc1)C1CCN(CC2CN(c3ccc(S(=O)(=O)c4ccccc4)cc3)C2)CC1 (mixture of isomers) [compound 348, methyl (rac-(1R,2S)-2-(cyano(phenyl)(1-((1-(4-(phenylsulfonyl)phenyl)azetidin-3-yl)methyl)piperidin-4-yl)methyl)cyclopentyl) carbamate]",0.819
10,"CCN1Cc2ccccc2C(C2CCCC2)(C2CCN(CC3CN(c4ccc(S(=O)(=O)c5ccnc(C)c5)cc4)C3)CC2)C1 (centres unmarked) [compound 154, 4-cyclopentyl-2-ethyl-4-(1-((1-(4-((2-methylpyridin-4-yl)sulfonyl)phenyl)azetidin-3-yl)methyl)piperidin-4-yl)-1,2,3,4-tetrahydroisoquinoline]",0.006
